# Reference: US6153434A, “Methods for the intracellular delivery of substances” (University of Florida, priority 1999, dated 2000)
# Like-named read-outs stand apart in the source and are kept apart here.
# Columns and labels:
# plasmid DNA = test: Dissociation of DNA from DNA/liposome complexes by glutathione, agarose gel electrophoresis; assay type: physicochemical
# Method: Dissociation of DNA from DNA/liposome complexes by glutathione: One μg of plasmid DNA was dissolved in 10 (L of phosphate-buffer saline (PBS). Cationic liposomes […] or CHSTAEA/DOPE were added to pDNA solution at the increasing weight ratios of 2/1, respectively. All calculations of the weight of liposomes in this paper were based on the weight of cationic lipids only. After the complexes were incubated for 30 minutes at room temperature, 10 (L of 20 mM of glutathione in PBS (pH=7.3) was added to the mixture to reach a final concentration of glutathione of 10 mM. The mixtures were incubated at 37° C. for 20 hours. Released DNA was visualized by 1% agarose gel electrophoresis.
# DNA was complexed with a disulfide cationic liposome CHDTAEA/DOPE or its non-disulfide cationic liposome analog CHSTAEA/DOPE at the cationic lipid to DNA ratio of 2/1. […] In the presence of 10 mM of glutathione, >50% of DNA was released from complexes after the incubation. […] The complexes with the ratios of cationic liposome/DNA from 3/1 to 5/1 were also tested in the release assay with similar same results.
# SKnSH cells [1] = test: Transfection of pGL3-luciferase plasmid; assay type: cell-based
# Method: (§1) FIGS. 5A and 5B show a comparison of the transfection of pGL3-luciferase plasmid by CHDTAEA/DOPE, CHSTAEA/DOPE, and DC-Chol in CHO and SKnSH cells. A fixed dose 2 μg/well of pGL3 DNA was mixed with increasing weight ratios of cationic liposomes (calculation based on cationic lipid) and used for transfection. FIG. 5A: Transfection in CHO cells, FIG. 5B: Transfection in SKnSH cells. .diamond-solid.CHDTAEA/DOPE, .box-solid.CHSTAEA/DOPE; .tangle-solidup.DC-Chol/DOPE. Data is shown as mean (S. D. (n=3).
# (§2) Cell culture and gene transfection using CHDTAEA and CHSTAEA: Chinese hamster ovary (CHO) and SKnSH cells were obtained from American Tissue Type Collection (Rockville, Md.). […] DNA/liposome complexes in 100 (L of serum free media were added to each well and incubated for 4.5 hours. After the 4.5-hour transfection time, the transfection media were changed to growth media and cells were incubated for another 24 hours. Luciferase activity was measured using a standard luciferase assay (Thierry, A. R., P. Rabinovich, B. Peng, L. C. Mahan, J. L. Bryant, R. C. Gallo (1997) Gene Ther 4:226-237). Luciferase activity in transfected cells was expressed as RLU per well. All conditions for transfection were strictly kept the same for each different kind of liposomes. Experiments were repeated at least twice, and experiments were done in triplicate within a given series.
# CHO cells [2] = test: Transfection of pGL3-luciferase plasmid; assay type: cell-based, Chinese hamster
# Method: as §1, §2
# CHO and SKnSH cells = test: Cytotoxicity of liposome/DNA complexes, both cell lines (FIG. 6); assay type: cell-based
# Method: FIGS. 6A and 6B show the toxicity assays of cytotoxicity of the liposome/DNA complexes was studied in CHO and SKnSH cells. A fixed dose of 1 μg/well of pDNA was mixed with increasing amount of cationic liposomes and used in the toxicity assay. Cell viability was calculated as percentage of survival cells as stated in the Methods section. FIG. 6A: Toxicity in CHO cells. FIG. 6B: Toxicity in SKnSH cells. .diamond-solid.CHDTAEA/DOPE, .box-solid.CHSTAEA/DOPE; .tangle-solidup.DC-Chol/DOPE. Data is shown as mean (S. D. (n=3).
# Toxicity Assay of CHDTAEA, CHSTAEA and DC-Chol: The toxicity of CHDTAEA/DOPE, CHSTAEA/DOPE and DC-Chol/DOPE in the CHO and SKnSH cell line was determined using a CARE-LASS (a calcein release assay). Before the assay, cells were plated in a 96 well plate (1(10^5 cells/well) and grown to 60-80% confluence overnight. To test the toxicity of the DNA/liposome complexes, a fixed amount of DNA (1 μg/well) was used to complex with increasing amount of liposomes. The ratios of DNA to liposome of different treatments were the same as the ratios used in transfection studies. The cytotoxicity of three liposomes were measured and expressed according to our previous procedure (Tang, F., J. A. Hughes (1998) Biochem Biophys Res Commun 242:141-145). Each experiment was performed in triplicate and repeated at least twice.
# SKnSH cells [3] = test: Luciferase gene transfection; assay type: cell-based
# COS 1 cells = test: Luciferase gene transfection (second set of experiments)
# CHO cells [4] = test: as above; assay type: cell-based, Chinese hamster
# Method: (§3) When DNA transfection was carried out in serum free media, the DNA/liposome complexes usually incubated with cells for about 4-5 hours. […] Biophys. Acta 1111, 239-246). For gene transfection in growth media containing 10% FBS, the toxicity of complexes may be alleviated, and also the transfection may be inhibited by enzymes or slowed down by negatively charged macromolecules.
# Biophys. Acta 1111, 239-246).
# CHO cells [5] = test: Transfection efficiency assay (green fluorescence protein, pUF2 DNA); assay type: cell-based, Chinese hamster; conditions: optimal transfection ratio
# Method: Transfection efficiency assay: The optimal weight ratio for transfection of each liposome was used. […] Complexes were incubated with CHO cells in serum free media for 4.5 hour then the media was changed to growth media and further incubated for 20 hours. Transfection efficiency was determined by counting the number of green fluorescence cells compared with all cells in the field of vision under (20 magnification using a Nikon Diaphot inverted microscope). Each transfection was done in triplicate and three separate counts were made for each well.
# COS-1 cells = test: Luciferase gene transfection; assay type: cell-based
# [6] = system: COS 1 cells and CHO cells; test: Luciferase gene transfection (second set of experiments), COS 1 and CHO; assay type: cell-based; conditions: serum free media
# Method: In another set of experiments COS 1 and Chinese hamster ovary (CHO) cells were maintained in DMEM (high glucose) and (-MEM) respectively, and supplemented with 10% fetal bovine serum (FBS) and antibiotics (penicillin 100 g/ml and streptomycin 100 μg/ml). All cells were kept in 5% CO2 and at 37° C. in humidified air. Cell lines were cultured and seeded in 24 well plates (2×10^5), and grown to 60-80% confluence in 1 ml of media with serum. DNA/lipid complexes were made and incubated at room temperature in serum free media for 5-10 minutes and used for transfection. Before transfection, growth media containing serum was changed to serum free media and for the experiment to test serum sensitivity, growth media were changed to fresh growth media and the transfection mixtures were added to the cells. After a certain period of time for the specific experiments, the media was changed to growth media containing serum, and the cells were grown for another 48 hours. Following transfection and incubation, cells were rinsed twice with phosphate buffer saline. 100 μL of luciferase lysis buffer (0.1 M potassium phosphate buffer pH 7.8, 2 mM EDTA, 1% Triton X-100, 1 mM DTT) was added to the cells. The cells were lysed with shaking at room temperature for 15 minutes. Luciferase activity was quantified by using a Monolight 2010 Luminometer. 100 µl of luciferase assay buffer (30 mM tricine, 3 mM ATP, 15 mM MgSO4, 10 mM DDT, pH=7.8) and 2 μL of cell lysate were added to a 100 l injection of 1 mM D-luciferin, pH=6.3 (Molecular Probes). The light emission over a 10 second reaction period was integrated. […] 2 l of cells lysate was used for luciferase assay. The total protein concentration in the supernatant was measured by the BCA protein assay reagent (Pierce, Rockford, Ill.). Luciferase activity in cultured cells was expressed as RLU per mg of protein. Each experiment was repeated at least twice, and within in a series, experiments were done in triplicate.
# Comparison experiments were done by using a fixed amount of DNA (3 g/well). Transfection activity of six ratios of cationic lipid to DNA: 1/1, 2/1, 3/1, 4/1, 8/1, and 10/1 (w/w) were tested in COS 1 cells and CHO cells. […] Since serum was reported to decrease the transfection activity of some cationic liposomes, transfection was studied both in serum free media and growth media containing 10% of FBS.
# [7] = Aggregation of transfection complexes during transfection; assay type: physicochemical
# Method: The lack of physical stability of liposome/DNA complexes affects the gene transfection activity (Caplen, N. J., E. Kinrade, F. Sorgi, X Gao, D. Gruenert, C. Couttelle, L. Huang, E. W . F. W. Alton, R. Williamson (1995) Gene Ther. 2:603). […] The interaction force between primary amino groups and DNA is not as strong as the interaction force of a quaternary amino group with DNA and is dependent on the local environment.
# as §3
# 293 cells = test: Luciferase gene transfection; assay type: cell-based
# [8] = CHO cells, growth media containing 10% FBS
# [9] = CHO, serum free, optimal ratio of each liposome
# [10] = weight ratio 10/1 (charge ratio 6/1(+/-))
structure (smiles),measurement,setting,value
"CC(C)CCC[C@@H](C)[C@H]1CC[C@H]2[C@@H]3CC=C4C[C@@H](OC(=O)CSSCC(=O)NCCN(CCN)CCN)CC[C@]4(C)[C@H]3CC[C@]12C [CHDTAEA, Cholesteryl hemidithiodiglycolyl tris(aminoethyl)amine]",release of complexed DNA,plasmid DNA; presence of glutathione,released more than half of complexed DNA
same,transfection activity vs non-disulfide analog CHSTAEA,SKnSH cells [1],greater transfection activity than its non-disulfide analog CHSTAEA
same,transfection activity vs non-disulfide analog CHSTAEA,CHO cells [2],greater transfection activity than its non-disulfide analog CHSTAEA
"CC(C)CCC[C@@H](C)[C@H]1CC[C@H]2[C@@H]3CC=C4C[C@@H](OC(=O)CCC(=O)NCCN(CCN)CCN)CC[C@]4(C)[C@H]3CC[C@]12C [CHSTAEA, Cholesteryl hemisuccinyl tris(aminoethyl)amine]",release of DNA from complexes,"plasmid DNA; in both reductive and non-reductive environments, 20 hours",did not release DNA at any conditions after incubation for 20 hours
same,cytotoxicity vs CHDTAEA,CHO and SKnSH cells,much greater cytotoxicity
"CC(C)CCC[C@@H](C)[C@H]1CC[C@H]2[C@@H]3CC=C4C[C@@H](OC(=O)NCCN(C)C)CC[C@]4(C)[C@H]3CC[C@]12C [DC-Chol, Cholesteryl N-(dimethylaminoethyl)carbamate, reference compound]",cytotoxicity vs CHDTAEA,CHO and SKnSH cells; FIG. 6,much greater cytotoxicity
"CCCCCCCC/C=C\CCCCCCCC(=O)OC[C@H](COC(=O)CCC(=O)OCCSSCCOC(=O)C(N)CCCN)OC(=O)CCCCCCC/C=C\CCCCCCCC (some centres unmarked) [DOGSDSO, 1',2'-dioleoyl-sn-glycero-3'-succinyl-2-hydroxyethyl disulfide ornithine conjugate]",increase in transfection activity compared to DOGSHDO,SKnSH cells [3],4 fold
same,transfection activity in the presence of serum,"COS 1 cells; 10% FBS, COS-1 cells",equally active in the presence of 10% FBS
same,"luciferase gene expression, 2 g of pDNA, vs 7 g of pDNA with DOGSHDO",COS 1 cells; COS 1,3 time higher
same,luciferase gene expression,"COS 1 cells; COS 1, 2 g of pDNA",1.18E+09
same,transfection activity in growth media vs serum free media,"COS 1 cells; COS 1, 12 hours",comparable to transfection activity in serum free media
same,transfection activity (luciferase),"COS 1 cells; COS 1, growth media (10% FBS), 12 hours",5.9×10^8 RLU/mg protein
same,"highest transfection activity, times higher than DOGSHDO","COS 1 cells; COS 1, growth media with serum",3 times
same,"highest transfection activity, times higher than DOTAP","COS 1 cells; COS 1, growth media with serum",2 times
same,amount of DNA at saturation of system,"COS 1 cells; COS 1, lipid/DNA 10/1",2 g
same,transgene expression on increase of DNA from 2 g to 7 g,"COS 1 cells; COS 1, lipid/DNA 10/1",no significant increase of transgene expression (p>0.2319)
same,"transfection activity, times higher than DOGSHDO","COS 1 cells; COS 1, serum free, optimal ratio of each liposome",11 times
same,"transfection activity, times higher than DOTAP","COS 1 cells; COS 1, serum free, optimal ratio, DOTAP at 1:1",6 times
same,amount of DNA at saturation of system,"COS 1 cells; COS-1 cells, optimal DNA/liposome ratio",2e-06 g
same,"expression of luciferase at lipid/DNA ratios 1/1, 2/1, 3/1, 4/1 (w/w)",COS 1 cells; growth media with serum,not statistically different (p>0.2782)
same,gene expression on further increase of DNA to 7 μg,CHO cells [4]; CHO,decrease of gene expression (p<0.0232)
same,"gene expression, 5 μg vs 6 μg of DNA",CHO cells [4]; CHO,no significant difference of gene expression between the treatments of 5 μg of DNA and 6 μg of DNA (p>0.6528)
same,"luciferase gene expression, 5 μg of DNA, vs 7 μg of DNA by DOGSHDO",CHO cells [4]; CHO,14 times higher
same,transfection time of highest transfection activity,CHO cells [4]; [8],12 h
same,luciferase gene expression,"CHO cells [4]; CHO, 5 μg of DNA",9.03E+08
same,"optimal transfection activity, times higher than DOTAP or DOGSHDO","CHO cells [4]; CHO, growth media with serum",3 times
same,transfection efficiency vs DOGSHDO,"CHO cells [4]; CHO, lipid/DNA 10/1",higher transfection efficiency
same,"transfection activity, times higher than DOGSHDO",CHO cells [4]; [9],3 times
same,"transfection activity, times higher than DOTAP",CHO cells [4]; [9],2 times
same,amount of DNA at saturation of system,"CHO cells [4]; CHO, transferred by 50 μg of DOGSDSO",5 µg
same,transgene expression efficiency (green fluorescence protein),CHO cells [5],20-25%
same,effect on transfection activity compared to DOGSHDO,COS-1 cells,greater than 50 fold
same,effect of further increase of liposome amount above 10/1,[6],caused cytotoxicity and decreased the transfection activity
same,optimal weight ratio of cationic lipid to DNA in transfection,[6],10/1
same,aggregation of transfection complexes,[7]; [10],did not aggregate during transfection
same,effect on transfection activity compared to DOGSHDO,293 cells,greater than 50 fold
"CCCCCCCC/C=C\CCCCCCCC(=O)OCC(COC(=O)CCC(=O)OCCCCCCOC(=O)[C@@H](N)CCCN)OC(=O)CCCCCCC/C=C\CCCCCCCC (some centres unmarked) [DOGSHDO, 1',2'-dioleyl-sn-glycero-3'-succinyl-1,6-hexanediol ornithine conjugate]",saturation of system,"COS 1 cells; 7 μg of DNA, COS-1 cells",did not reach the saturation
same,luciferase gene expression,"COS 1 cells; COS 1, 7 g of pDNA",3.84E+08
same,transgene expression with increasing complexes,"COS 1 cells; COS 1, lipid/DNA 10/1",increased with the increase of DNA/DOGSHDO complexes (p<0.0071) for the system did not reach saturation
same,"luciferase expression, 7 μg of DNA, vs 2 μg of DNA by DOGSDSO",COS 1 cells; COS-1 cells,only one third of that of 2 μg of DNA transferred by DOGSDSO liposome
same,gene expression with increasing amount of DNA/liposome,CHO cells [4]; CHO,gene expression kept increasing
same,transfection time of highest transfection activity,CHO cells [4]; [8],12 h
same,luciferase gene expression,"CHO cells [4]; CHO, 7 μg of DNA",6.5E+07
same,transgene expression efficiency (green fluorescence protein),CHO cells [5],6-7%
same,effect of further increase of liposome amount above 10/1,[6],caused cytotoxicity and decreased the transfection activity
same,optimal weight ratio of cationic lipid to DNA in transfection,[6],10/1
same,aggregation of transfection complexes,[7]; [10],did not aggregate during transfection
"CCCCCCCC/C=C\CCCCCCCC(=O)OCC(C[N+](C)(C)C)OC(=O)CCCCCCC/C=C\CCCCCCCC (centres unmarked) [DOTAP, 1,2-dioleoyl-3-trimethylammonium-propane, reference compound]",transfection activity from 2 hours to 48 hours transfection time,CHO cells [4]; [8],not statistically different from 2 hours to 48 hours transfection time (p>0.1220)
same,transgene expression efficiency (green fluorescence protein),CHO cells [5],5-6%
same,aggregation of transfection complexes,[7]; weight ratios of DOTAP to DNA bigger than 2:1,form large aggregates
